These results are taken from patent US7670997B2, “Ophthalmic compositions comprising a branched, glycerol monoalkyl compound and a fatty acid monoester” (Bausch & Lomb Incorporated, priority 2006, dated 2010).

Structures are written as SMILES. Like-named read-outs stand apart in the source and are kept apart here.

The conditions of data set [1]: for Foam Height Time = 0 min: after 10 seconds of vigorous shaking; for Foam Height Time = 30 min: after 30 minutes of standing. The method, then:
In such a test, 50 mL of the solution being tested is placed in a 100 mL graduated cylinder (2.6 cm in diameter). The foam height is measured after 10 seconds of vigorous shaking of the cylinder containing the test solution. Foam height after 30 minutes of standing is also measured to evaluate foam draining propensity of the test solutions.

For data set [2], the system named is Gram-positive bacteria associated with perspiration odor. The following applies: Sensiva product literature, Schulke & Mayr; cited from earlier work.
Setting [3] is: octoxyglycerin 0.05 ppm in Table 1 formulation.
Setting [4] is: octoxyglycerin 0.10 ppm in Table 1 formulation.
Setting [5] is: octoxyglycerin 0.25 ppm in Table 1 formulation.
Setting [6] is: octoxyglycerin 0.50 ppm in Table 1 formulation.
[7] abbreviates: octoxyglycerin 0.75 ppm in Table 1 formulation.
The mark [8] stands for this setting: octoxyglycerin 1.00 ppm in Table 1 formulation.
Setting [9] is: octoxyglycerin 2.00 ppm in Table 1 formulation.

Turning to `CCCCC(CC)COCC(O)CO` (stereo not shown) [octoxyglycerin, 3-[(2-ethylhexyl)oxy]-1,2-propanediol], the control of foaming entry in data set [1] (amounts over 0.05 ppm, multi-purpose lens care products with over 3.0 wt % foaming surfactants (Pluronic F127, Tetronic 1107)) is “effective control of foaming”. For the same compound, the “Foam Height Time = 0 min” value in data set [1] (setting [3]) was 3.8 ± 0.2 cm; in data set [1] (setting [4]), 2.6 ± 0.4 cm; in data set [1] (setting [5]) it was 1.3 ± 0.2 cm; in data set [1] (setting [6]), 0.7 ± 0.2 cm; in data set [1] (setting [7]), 0.3 ± 0.1 cm; in data set [1] (setting [8]), 0.1 ± 0.0 cm. In data set [1] (setting [9]), the “Foam Height Time = 0 min” value came out at 0.1 ± 0.0 cm. Besides, the “Foam Height Time = 30 min” value in data set [1] (setting [3]) was determined as 3.0 ± 0.3 cm; in data set [1] (setting [4]) it was 2.0 ± 0.2 cm; in data set [1] (setting [5]), 0.8 ± 0.2 cm; in data set [1] (setting [6]), 0.4 ± 0.1 cm; in data set [1] (setting [7]) it was 0.2 ± 0.1 cm; in data set [1] (setting [8]), 0.0 ± 0.0 cm. The “Foam Height Time = 30 min” value in data set [1] (setting [9]) is listed as 0.0 ± 0.0 cm. Further, the “antimicrobial activity against Gram-positive bacteria” value in data set [2] is “exhibit antimicrobial activity”.
